Measured values as given in ChEMBL document CHEMBL5500393, “Discovery and Optimization of Novel SaFabI Inhibitors as Specific Therapeutic Agents for MRSA Infection” (J Med Chem, 2024).
≈ marks a conversion by molar mass, not a printed value. Calls of active or inactive are those of the source. The rule behind the calls is not given here.

Key:
Staphylococcus aureus [1] = test: Antimicrobial activity against methicillin-susceptible Staphylococcus aureus ATCC29213 measured after 24 hrs by CLSI protocol based microdilution method; type: functional
Acinetobacter baumannii = test: Antimicrobial activity against Acinetobacter baumannii ATCC19606 measured after 24 hrs by CLSI protocol based microdilution method; type: functional
[2] = Selectivity index, ratio of HC50 for sheep erythrocytes to MIC for Staphylococcus aureus; type: toxicity; conditions: read-out: Selectivity Index
Candida albicans = test: Antimicrobial activity against Candida albicans SC5314 measured after 48 hrs by CLSI protocol based microdilution method; type: functional
[3] = Inhibition of N-terminal his 6 tagged Acinetobacter baumannii Fabi (1 to 804 residues) expressed in Escherichia coli BL21 incubated for 30 mins in presence of NADH by fluorescence based microplate reader analysis
[4] = Cytotoxicity against HEK293 cells assessed as survival rate at 400 uM measured after 48 hrs by CCK-8 method relative to control; type: toxicity, cell-based; conditions: human, read-out: Survival
[5] = Hemolytic activity in sheep erythrocytes assessed as hemolysis at 64 ug/ml incubated for 1 hr by microplate reader based analysis relative to control; type: toxicity, cell-based, Ovis aries, Erythrocyte; conditions: at 64 µg/mL, read-out: Activity
[6] = target: T1, Enoyl-[acyl-carrier-protein] reductase [NADPH] FabI (Staphylococcus aureus) (UniProt Q6GI75); test: Inhibition of N-terminal his 6 tagged Staphylococcus aureus Fabi (1 to […] residues) expressed in Escherichia coli BL21 at 10 uM incubated for 30 mins in presence of NADPH by fluorescence based microplate reader analysis relative to control
T1 sequence (whole entry): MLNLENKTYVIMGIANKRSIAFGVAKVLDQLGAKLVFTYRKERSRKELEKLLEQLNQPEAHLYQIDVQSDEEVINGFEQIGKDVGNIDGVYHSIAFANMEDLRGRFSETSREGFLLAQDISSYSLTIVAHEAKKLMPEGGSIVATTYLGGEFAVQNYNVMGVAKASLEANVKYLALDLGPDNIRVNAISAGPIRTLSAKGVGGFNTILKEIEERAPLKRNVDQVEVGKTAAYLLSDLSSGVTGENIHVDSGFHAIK

Staphylococcus aureus [7] = test: Antimicrobial activity against Staphylococcus aureus measured after 24 hrs by CLSI protocol based microdilution method; type: functional
HepG2 [8] = test: Cytotoxicity against human HepG2 cells assessed as survival rate at 400 uM measured after 48 hrs by CCK-8 method relative to control; type: functional; conditions: read-out: Survival
[9] = target: T2, Enoyl-[acyl-carrier-protein] reductase [NADPH] FabI (Staphylococcus aureus, UniProt Q6GI75); test: Inhibition of N-terminal his 6 tagged Staphylococcus aureus Fabi (1 to […] residues) expressed in Escherichia coli BL21 incubated for 30 mins in presence of NADPH by fluorescence based microplate reader analysis
T2 sequence (Q6GI75 whole entry): T1 sequence (whole entry)

Enterococcus faecalis = test: Antimicrobial activity against Enterococcus faecalis ATCC29212 measured after 24 hrs by CLSI protocol based microdilution method; type: functional
[10] = Cytotoxicity against HEK293 cells assessed as survival rate at 800 uM measured after 48 hrs by CCK-8 method relative to control; type: toxicity, cell-based; conditions: human, read-out: Survival
Escherichia coli = test: Antimicrobial activity against Escherichia coli ATCC25922 measured after 24 hrs by CLSI protocol based microdilution method; type: functional
Pseudomonas aeruginosa = test: Antimicrobial activity against Pseudomonas aeruginosa PAO1 measured after 24 hrs by CLSI protocol based microdilution method; type: functional
HepG2 [11] = test: Cytotoxicity against human HepG2 cells assessed as survival rate at 800 uM measured after 48 hrs by CCK-8 method relative to control; type: functional; conditions: read-out: Survival
Staphylococcus aureus [12] = test: Antimicrobial activity against […] Staphylococcus aureus NRS271 measured after 24 hrs by CLSI protocol based microdilution method; type: functional
Staphylococcus aureus [13] = test: Antimicrobial activity against […] Staphylococcus aureus ATCC33591 measured after 24 hrs by CLSI protocol based microdilution method; type: functional
Staphylococcus aureus [14] = test: Antimicrobial activity against […] Staphylococcus aureus USA300 measured after 24 hrs by CLSI protocol based microdilution method; type: functional
[15] = Hemolytic activity in sheep erythrocytes assessed as hemolysis at 128 ug/ml incubated for 1 hr by microplate reader based analysis relative to control; type: toxicity, cell-based, Ovis aries, Erythrocyte; conditions: at 128 µg/mL, read-out: Activity
Staphylococcus aureus [16] = test: Antimicrobial activity against methicillin-susceptible Staphylococcus aureus ATCC25923 measured after 24 hrs by CLSI protocol based microdilution method; type: functional
[17] = Inhibition of N-terminal his 6 tagged Escherichia coli Fabi (1 to 789 residues) expressed in Escherichia coli BL21 incubated for 30 mins in presence of NADH by fluorescence based microplate reader analysis
Enterococcus faecium = test: Antimicrobial activity against Enterococcus faecium ATCC19434 measured after 24 hrs by CLSI protocol based microdilution method; type: functional
[18] = Hemolytic activity in sheep erythrocytes assessed as hemolysis incubated for 1 hr by microplate reader based analysis; type: toxicity, cell-based, Ovis aries, Erythrocyte
[19] = Hemolytic activity in sheep erythrocytes assessed as hemolysis at 256 ug/ml incubated for 1 hr by microplate reader based analysis relative to control; type: toxicity, cell-based, Ovis aries, Erythrocyte; conditions: at 256 µg/mL, read-out: Activity
[20] = target: T1, Enoyl-[acyl-carrier-protein] reductase [NADPH] FabI (Staphylococcus aureus); test: Inhibition of N-terminal his 6 tagged Staphylococcus aureus Fabi (1 to […] residues) expressed in Escherichia coli BL21 at 1 uM incubated for 30 mins in presence of NADPH by fluorescence based microplate reader analysis relative to control
Staphylococcus aureus [21] = test: Antimicrobial activity against […] Staphylococcus aureus ATCC43300 measured after 24 hrs by CLSI protocol based microdilution method; type: functional
Staphylococcus aureus [22] = test: In vivo antibacterial activity against methicilin-resistant Staphylococcus aureus ATCC33591 infected in BALB/c mouse skin infection model assessed as decrease in lesion size at 10 mg/kg administered daily for 4 days (reference value: 43.4 mm2); type: functional; conditions: time 4 day
Staphylococcus aureus [23] = test: In vivo antibacterial activity against methicilin-resistant Staphylococcus aureus ATCC33591 infected in BALB/c mouse skin infection model assessed as restoration of cell morphology at 20 mg/kg administered daily for 4 days by H and E staining based analysis; type: functional, organism-based; conditions: time 4.0 day
Staphylococcus aureus [24] = test: In vivo antibacterial activity against methicilin-resistant Staphylococcus aureus ATCC33591 infected in BALB/c mouse skin infection model assessed as reduction in number of inflammatory cells at 20 mg/kg administered daily for 4 days by H and E staining based analysis; type: functional, organism-based; conditions: time 4.0 day
Staphylococcus aureus [25] = test: In vivo antibacterial activity against methicilin-resistant Staphylococcus aureus ATCC33591 infected in BALB/c mouse skin infection model assessed as reduction in area of injury at 20 mg/kg administered daily for 4 days by H and E staining based analysis; type: functional, organism-based; conditions: time 4.0 day

SMILES: Cc1c(Cl)cccc1N1CC(c2nc3ccccc3n2C)CC1=O (configuration not stated)
- MIC (Staphylococcus aureus [1]): 2 mg/L (≈ 5.89 µM)
- MIC (Acinetobacter baumannii): > 32 mg/L
- selectivity ratio [2]: > 64
- MIC (Candida albicans): > 32 mg/L
- IC50 [3]: 0.266 µM
- viability at 48 h, 400 µM [4]: > 70%
- hemolysis at 1 h, 64 ug/ml [5]: 3.8%
- inhibition [6]: 99.1%
- MIC (Staphylococcus aureus [7]): 2 mg/L (≈ 5.89 µM)
- viability at 400 µM (HepG2 [8]): > 70%
- IC50 [9]: 0.429 µM
- MIC (Enterococcus faecalis): > 32 mg/L
- viability at 48 h, 800 µM [10]: > 65%
- MIC (Escherichia coli): > 32 mg/L
- MIC (Pseudomonas aeruginosa): > 32 mg/L
- viability at 800 µM (HepG2 [11]): > 65%
- MIC (Staphylococcus aureus [12]): 4 mg/L (≈ 11.8 µM)
- MIC (Staphylococcus aureus [13]): 2 mg/L (≈ 5.89 µM)
- MIC (Staphylococcus aureus [14]): 4 mg/L (≈ 11.8 µM)
- hemolysis at 1 h, 128 ug/ml [15]: 6.9%
- MIC (Staphylococcus aureus [16]): 2 mg/L (≈ 5.89 µM)
- IC50 [17]: 0.0359 µM
- MIC (Enterococcus faecium): > 32 mg/L
- HC50 at 1 h [18]: > 256 µg/mL
- hemolysis at 1 h, 256 ug/ml [19]: 13.2%
- inhibition [20]: 76.8%
- MIC (Staphylococcus aureus [21]): 2 mg/L (≈ 5.89 µM)

SMILES: CC(=O)NC[C@H]1CN(c2ccc(N3CCOCC3)c(F)c2)C(=O)O1 [LINEZOLID]
- MIC (Acinetobacter baumannii): > 32 mg/L
- Activity (Staphylococcus aureus [22]): 25.7 mm2
- MIC (Candida albicans): > 32 mg/L
- Activity (Staphylococcus aureus [23]): inactive
- Activity (Staphylococcus aureus [24]): inactive
- MIC (Escherichia coli): > 32 mg/L
- MIC (Pseudomonas aeruginosa): > 32 mg/L
- Activity (Staphylococcus aureus [25]): inactive
- MIC (Staphylococcus aureus [12]): > 32 mg/L
- MIC (Staphylococcus aureus [14]): 1 mg/L (≈ 2.96 µM)
- MIC (Enterococcus faecium): 2 mg/L (≈ 5.93 µM)

SMILES: Cn1c(C2CC(=O)N(c3cccc(Cl)c3Cl)C2)nc2ccccc21 (configuration not stated)
- MIC (Staphylococcus aureus [1]): 2 mg/L (≈ 5.55 µM)
- MIC (Acinetobacter baumannii): > 32 mg/L
- selectivity ratio [2]: > 64
- MIC (Candida albicans): > 32 mg/L
- IC50 [3]: 0.266 µM
- viability at 48 h, 400 µM [4]: > 70%
- hemolysis at 1 h, 64 ug/ml [5]: 2.4%
- inhibition [6]: 98.8%
- MIC (Staphylococcus aureus [7]): 2 mg/L (≈ 5.55 µM)
- viability at 400 µM (HepG2 [8]): > 70%
- IC50 [9]: 0.495 µM
- MIC (Enterococcus faecalis): > 32 mg/L
- viability at 48 h, 800 µM [10]: > 75%
- MIC (Escherichia coli): > 32 mg/L
- MIC (Pseudomonas aeruginosa): > 32 mg/L
- viability at 800 µM (HepG2 [11]): > 75%
- MIC (Staphylococcus aureus [12]): 4 mg/L (≈ 11.1 µM)
- MIC (Staphylococcus aureus [13]): 4 mg/L (≈ 11.1 µM)
- MIC (Staphylococcus aureus [14]): 2 mg/L (≈ 5.55 µM)
- hemolysis at 1 h, 128 ug/ml [15]: 4.3%
- MIC (Staphylococcus aureus [16]): 2 mg/L (≈ 5.55 µM)
- IC50 [17]: 0.0359 µM
- MIC (Enterococcus faecium): > 32 mg/L
- HC50 at 1 h [18]: > 256 µg/mL
- hemolysis at 1 h, 256 ug/ml [19]: 7.5%
- inhibition [20]: 73.7%
- MIC (Staphylococcus aureus [21]): 2 mg/L (≈ 5.55 µM)

SMILES: CCn1c(C2CC(=O)N(c3cccc(Br)c3C)C2)nc2ccccc21 (configuration not stated)
- MIC (Staphylococcus aureus [1]): 2 mg/L (≈ 5.02 µM)
- MIC (Acinetobacter baumannii): > 32 mg/L
- selectivity ratio [2]: > 128
- MIC (Candida albicans): > 32 mg/L
- IC50 [3]: 0.266 µM
- viability at 48 h, 400 µM [4]: > 70%
- hemolysis at 1 h, 64 ug/ml [5]: 4.3%
- inhibition [6]: 96.3%
- MIC (Staphylococcus aureus [7]): 1 mg/L (≈ 2.51 µM)
- viability at 400 µM (HepG2 [8]): > 70%
- IC50 [9]: 0.342 µM
- MIC (Enterococcus faecalis): > 32 mg/L
- viability at 48 h, 800 µM [10]: > 65%
- MIC (Escherichia coli): > 32 mg/L
- MIC (Pseudomonas aeruginosa): > 32 mg/L
- viability at 800 µM (HepG2 [11]): > 65%
- MIC (Staphylococcus aureus [12]): 2 mg/L (≈ 5.02 µM)
- MIC (Staphylococcus aureus [13]): 1 mg/L (≈ 2.51 µM)
- MIC (Staphylococcus aureus [14]): 1 mg/L (≈ 2.51 µM)
- hemolysis at 1 h, 128 ug/ml [15]: 7.5%
- MIC (Staphylococcus aureus [16]): 2 mg/L (≈ 5.02 µM)
- IC50 [17]: 0.0359 µM
- MIC (Enterococcus faecium): > 32 mg/L
- HC50 at 1 h [18]: > 256 µg/mL
- hemolysis at 1 h, 256 ug/ml [19]: 12.7%
- inhibition [20]: 82.5%
- MIC (Staphylococcus aureus [21]): 2 mg/L (≈ 5.02 µM)
